From patent US4415574A, “Soluble N2 substituted derivatives of 2,4-diamino 5-benzyl pyrimidine, process for their preparation and medicaments containing them” (S. A. Panmedica, priority 1981, dated 1983)

How the values were obtained:
Type in all cases: cell-based
COLI [1] = test: Inhibiting minimum concentration (I.M.C.), activity relative to trimethoprime, OXOIDE COLI MEDIUM 4; conditions: for % activity with respect to the base: ratio of I.M.C. to trimethoprime; for % activity with respect to the base corrected by molecular weight: ratio to trimethoprime
Method: (§1) The antibacterial activity of the derivatives according to the invention were tested in vitro by determining the inhibiting minimum concentrations (I.M.C.) on different germs.

COLI [2] = test: Inhibiting minimum concentration (I.M.C.), activity relative to trimethoprime, MULLER HINTON COLI MEDIUM 4; conditions: for % activity with respect to the base: ratio of I.M.C. to trimethoprime; for % activity to the base corrected by molecular weight: ratio to trimethoprime
Method: as §1

BACIL PUMILUS = test: Inhibiting minimum concentration (I.M.C.), activity relative to trimethoprime, MULLER HINTON BACIL PUMILUS MEDIUM; conditions: for % activity with respect to the base: ratio of I.M.C. to trimethoprime; for % activity with respect to the base corrected by molecular weight: ratio to trimethoprime
Method: as §1

Row | SMILES | % activity with respect to the base (COLI [1]) [%] | % activity with respect to the base corrected by molecular weight (COLI [1]) [%] | % activity with respect to the base (COLI [2]) [%] | % activity to the base corrected by molecular weight (COLI [2]) [%] | % activity with respect to the base (BACIL PUMILUS) [%] | % activity with respect to the base corrected by molecular weight (BACIL PUMILUS) [%]
1 | COc1cc(Cc2cnc(NC(c3ccccc3O)S(=O)(=O)O)nc2N)cc(OC)c1OC (centres unmarked) [Example 25d, N2 (2-HYDROXY) PHENYL METHANE SULFONIC ACID OF 5-(3,4,5-TRIMETHOXY BENZYL) 2,4-DIAMINO PYRIMIDINE] | 28.3 | 53 | 45.4 | 85 | 55.5 | 104
2 | CCC(CC)C(Nc1ncc(Cc2cc(OC)c(OC)c(OC)c2)c(N)n1)S(=O)(=O)O (centres unmarked) [Example 7, N2 (2-Ethyl) Butane Sulfonic Acid of 2,4-Diamino 5-(3,4,5-Trimethoxy Benzyl) Pyrimidine] | 14 | 23 | 15.5 | 25 | 14 | 23
3 | COc1cc(Cc2cnc(NC(c3ccccc3)S(=O)(=O)O)nc2N)cc(OC)c1OC (centres unmarked) [Example 8, N2 Phenyl Methane Sulfonic Acid of 2,4-Diamino 5-(3,4,5-Trimethoxy Benzyl) Pyrimidine] | 13.3 | 21 | 10.2 | 16.4 | 18.4 | 26
4 | COc1cc(Cc2cnc(NC(c3cccs3)S(=O)(=O)O)nc2N)cc(OC)c1OC (centres unmarked) [Example 20, N2 (2-Thienyl) Methane Sulfonic Acid of 2,4-Diamino 5-(3,4,5-Trimethoxy Benzyl) Pyrimidine] | 62.6 | 105 | 73.5 | 123 | 83.4 | 140
5 | COc1cc(Cc2cnc(NC(c3ccccc3O)S(=O)(=O)O)nc2N)cc(OC)c1OC (centres unmarked) [Example 25c, N2 (2-HYDROXY) PHENYL METHANE SULFONIC ACID OF 5-(3,4,5-TRIMETHOXY BENZYL) 2,4-DIAMINO PYRIMIDINE] | – | – | 57 | 116 | – | –
6 | CCOc1cc(C(Nc2ncc(Cc3cc(OC)c(OC)c(OC)c3)c(N)n2)S(=O)(=O)O)ccc1O (centres unmarked) [Example 24b, N2 (3-Ethoxy 4-Hydroxy) Phenyl Methane Sulfonic Acid of 5-(3,4,5-Trimethoxy Benzyl) 2,4-Diamino Pyrimidine] | 48.7 | 93 | 43.9 | 84 | 42.2 | 79
7 | CCOc1cc(C(Nc2ncc(Cc3cc(OC)c(OC)c(OC)c3)c(N)n2)S(=O)(=O)O)ccc1O (centres unmarked) [Example 24e, N2 (3-Ethoxy 4-Hydroxy) Phenyl Methane Sulfonic Acid of 5-(3,4,5-Trimethoxy Benzyl) 2,4-Diamino Pyrimidine] | 21.3 | 46 | 40.0 | 86 | 40.0 | 86
8 | COc1cccc(C(Nc2ncc(Cc3cc(OC)c(OC)c(OC)c3)c(N)n2)S(=O)(=O)O)c1 (centres unmarked) [Example 16, N2 (3-Methoxy Phenyl) Methane Sulfonic Acid 2,4-Diamino 5-(3,4,5-Trimethoxy Benzyl) Pyrimidine] | 13.2 | 23 | 16.8 | 29 | 10.7 | 19
9 | CCC(C)C(C)C(Nc1ncc(Cc2cc(OC)c(OC)c(OC)c2)c(N)n1)S(=O)(=O)O (centres unmarked) [Example 6, N2 (2,3-Dimethyl) Pentane Sulfonic Acid of 2,4-Diamino 5-(3,4,5-Trimethoxy Benzyl) Pyrimidine] | 18.8 | 32 | 15.75 | 27 | 16.6 | 28
10 | COc1cc(Cc2cnc(NC(C(C)C)S(=O)(=O)O)nc2N)cc(OC)c1OC (centres unmarked) [Example 4, N2 (2-Methyl) Propane Sulfonic Acid of 2,4-Diamino 5-(3,4,5-Trimethoxy Benzyl) Pyrimidine] | 12.9 | 20 | 14.1 | 22 | 11.8 | 18
11 | COc1cc(Cc2cnc(NC(c3cccc([N+](=O)[O-])c3)S(=O)(=O)O)nc2N)cc(OC)c1OC (centres unmarked) [Example 13, N2 (3-Nitro Phenyl) Methane Sulfonic Acid of 2,4-Diamino 5-(3,4,5-Trimethoxy Benzyl) Pyrimidine] | 32.5 | 59 | 17.2 | 31 | 23.2 | 42
12 | COc1cc(Cc2cnc(NC(C(C)(C)C)S(=O)(=O)O)nc2N)cc(OC)c1OC (centres unmarked) [Example 5, N2 (2,2-Dimethyl) Propane Sulfonic Acid of 2,4-Diamino 5-(3,4,5-Trimethoxy Benzyl) Pyrimidine] | 18.4 | 29 | 23.3 | 37 | 19.4 | 30
13 | CCCC(Nc1ncc(Cc2cc(OC)c(OC)c(OC)c2)c(N)n1)S(=O)(=O)O (centres unmarked) [Example 3, N2 Butane Sulfonic Acid of 2,4-Diamino 5-(3,4,5-Trimethoxy Benzyl) Pyrimidine] | 18.35 | 28 | 4.55 | 10.8 | 2.9 | 6.8
14 | COc1cc(Cc2cnc(NC(c3ccccc3Cl)S(=O)(=O)O)nc2N)cc(OC)c1OC (centres unmarked) [Example 9, N2 (2-Chloro Phenyl) Methane Sulfonic Acid of 2,4-Diamino 5-(3,4,5-Trimethoxy Benzyl) Pyrimidine] | 14.7 | 26 | 13.3 | 23 | 14.1 | 25
15 | COc1cc(Cc2cnc(NC(c3ccccc3[N+](=O)[O-])S(=O)(=O)O)nc2N)cc(OC)c1OC (centres unmarked) [Example 14, N2 (2-Nitro Phenyl) Methane Sulfonic Acid of 2,4-Diamino 5-(3,4,5-Trimethoxy Benzyl) Pyrimidine] | 10.6 | 19 | 13.9 | 25 | 11.0 | 20
16 | CCOc1cc(C(Nc2ncc(Cc3cc(OC)c(OC)c(OC)c3)c(N)n2)S(=O)(=O)O)ccc1O (centres unmarked) [Example 24d, N2 (3-Ethoxy 4-Hydroxy) Phenyl Methane Sulfonic Acid of 5-(3,4,5-Trimethoxy Benzyl) 2,4-Diamino Pyrimidine] | 13.1 | 26 | 23.2 | 46 | 37.0 | 74
17 | COc1cc(Cc2cnc(NC(c3ccc([N+](=O)[O-])cc3)S(=O)(=O)O)nc2N)cc(OC)c1OC (centres unmarked) [Example 12, N2 (4-Nitro Phenyl) Methane Sulfonic Acid of 2,4-Diamino 5-(3,4,5-Trimethoxy Benzyl) Pyrimidine] | 11.7 | 21 | 18.1 | 32 | 11.9 | 22
18 | COc1cc(Cc2cnc(NC(c3cc(OC)c(OC)c(OC)c3)S(=O)(=O)O)nc2N)cc(OC)c1OC (centres unmarked) [Example 17, N2 (3,4,5-Trimethoxy Phenyl) Methane Sulfonic Acid 2,4-Diamino 5-(3,4,5-Trimethoxy Benzyl) Pyrimidine] | 34.8 | 68 | 24.3 | 48 | 42.7 | 84
19 | COc1cc(Cc2cnc(NC(C)S(=O)(=O)O)nc2N)cc(OC)c1OC (centres unmarked) [Example 2, N2 Ethane Sulfonic acid of 2,4-Diamino 5-(3,4,5-Trimethoxy Benzyl) Pyrimidine] | 4 | 5.8 | 4.3 | 6.2 | 2.8 | 4
